The NIST ThermoML archive (doi:10.1021/je3009123)
Numbers after ± are expanded uncertainties.

Tests used:
[1] = refractive index (Na D-line) (dimensionless); mn = molality of the nth substance listed, in mol/kg; conditions: 100 kPa, Liquid, Standard Abbe refractometry
[2] = mn = molality of the nth substance listed, in mol/kg; conditions: 100 kPa, Liquid; for speed of sound: Linear variable-path acoustic interferometer; for mass density: Pycnometric method

`CC1NC(=O)C(C)NC1=O` (stereo not given) [3,6-dimethyl-2,5-piperazinedione] + O gave a refractive index ([1]; 293.15 K, m1 = 0.05) of 1.3351 ± 0.0005, a refractive index ([1]; 298.15 K, m1 = 0.05) of 1.3344 ± 0.0005 and a refractive index ([1]; 303.15 K, m1 = 0.05) of 1.3337 ± 0.0005. It also gave a refractive index ([1]; 308.15 K, m1 = 0.05) of 1.3331 ± 0.0005, a refractive index ([1]; 313.15 K, m1 = 0.05) of 1.3324 ± 0.0005 and a speed of sound ([2]; 293.15 K, m1 = 0.05) of 1499.7 ± 1.8 m/s. It also gave a mass density ([2]; 293.15 K, m1 = 0.05) of 999.9 ± 0.38 kg/m3, a speed of sound ([2]; 298.15 K, m1 = 0.05) of 1509.5 ± 1.8 m/s and a mass density ([2]; 298.15 K, m1 = 0.05) of 998.82 ± 0.39 kg/m3. It also gave a speed of sound ([2]; 303.15 K, m1 = 0.05) of 1521.1 ± 1.8 m/s, a mass density ([2]; 303.15 K, m1 = 0.05) of 997.48 ± 0.4 kg/m3 and a speed of sound ([2]; 308.15 K, m1 = 0.05) of 1527.9 ± 1.8 m/s. For the same molecule, the mass density ([2]; 308.15 K, m1 = 0.05) was 996.18 ± 0.41 kg/m3, the speed of sound ([2]; 313.15 K, m1 = 0.05) was 1535.9 ± 1.8 m/s and the mass density ([2]; 313.15 K, m1 = 0.05) was 994.84 ± 0.43 kg/m3.

With `[Cl][Co][Cl]` [cobalt chloride] + O the refractive index ([1]; 293.15 K, m1 = 0.1) was 1.3373 ± 0.0005, the refractive index ([1]; 298.15 K, m1 = 0.1) was 1.3368 ± 0.0005 and the refractive index ([1]; 303.15 K, m1 = 0.1) was 1.3361 ± 0.0005. The refractive index ([1]; 308.15 K, m1 = 0.1) was 1.3356 ± 0.0005, the refractive index ([1]; 313.15 K, m1 = 0.1) was 1.335 ± 0.0005 and the speed of sound ([2]; 293.15 K, m1 = 0.1) was 1502.5 ± 1.8 m/s. It also gave a mass density ([2]; 293.15 K, m1 = 0.1) of 1014 ± 0.39 kg/m3, a speed of sound ([2]; 298.15 K, m1 = 0.1) of 1512 ± 1.8 m/s and a mass density ([2]; 298.15 K, m1 = 0.1) of 1013 ± 0.4 kg/m3. The speed of sound ([2]; 303.15 K, m1 = 0.1) was 1524 ± 1.8 m/s, the mass density ([2]; 303.15 K, m1 = 0.1) was 1011.84 ± 0.41 kg/m3 and the speed of sound ([2]; 308.15 K, m1 = 0.1) was 1533.9 ± 1.8 m/s. For the same molecule, the mass density ([2]; 308.15 K, m1 = 0.1) was 1010.16 ± 0.42 kg/m3, the speed of sound ([2]; 313.15 K, m1 = 0.1) was 1541.7 ± 1.8 m/s and the mass density ([2]; 313.15 K, m1 = 0.1) was 1007.89 ± 0.43 kg/m3.
